Assay [1] relates to spontaneous onset of insulin-dependent diabetes mellitus. In words: Onset of diabetes mellitus in NOD mice dosed at age 9 to 11 weeks (Example 25). Particulars: nine times. Type of assay: in vivo. An excerpt:
NOD mice purchased from Nippon Clair, Co. were naturally mated together. Among the off spring mice, a colony of NOD mice with a high frequency of the spontaneous onset of insulin-dependent diabetes mellitus was established. Female NOD mice from the colony were used for the present experiment. Chemical agents were orally or intraperitoneally administered to the NOD mice aged 9 to 11 weeks three times per week, in total nine times; and based on the test results of urine glucose, positive or negative, the onset of diabetes mellitus was followed once per week. Urine glucose was detected, using Uropaper (BM Test Glucose 5000, manufactured by Yamanouchi Pharmaceuticals, Co. Ltd.). The onset was judged on week 22; the doses were the same as in Example 24.

Assay [2] has as its system reductive glutathione in MΦ. Put plainly: GSH content in MΦ of JaK3 knock out mice by ACAS after free intake in city water (Example 6). Type of assay: in vivo. Particulars: free intake of city water containing 1 mg/ml, 24 days. The protocol: Three-hundred microliters of a cell suspension adjusted concentration of 3×10^5 cells/ml in an RPMI 1640 medium (phenol red-free) were charged into a chambered coverglass (#136439, supplied by Nunc), and incubated at 37° C. for 2 hours using a CO2 incubator. The culture solution was washed with the medium, and 300 μl of monochlorobimane (supplied by Molecular Plobe) adjusted to 10 μM in the same medium were added thereto. The mixture was charged into a CO2 incubator of 37° C., and the reaction was conducted for 30 minutes. The fluorescent intensity was measured with ACAS. In ACAS, a UV laser was used.
Macrophages (MΦ) were prepared from knock out mice deficient in a molecule participating in a signal transduction system from a receptor, and the function of the redox system was analyzed. […] Methods applied in Example 2 was repeated. JaK3 knock out mice were divided into three groups. A control group was a group of usual city water free-intake. An NAC group was a group of free intake of city water containing 1 mg/ml of NAC. A GSH-OEt group was a group of free intake of city water containing 1 mg/ml of GSH-OEt. […]
Peritoneal cells of knock out mice which had undergone the respective treatments were harvested, and the GSH content in the cells was analyzed using ACAS with MCB. […]

For a further assay, the system named is IL-6. Put plainly: IL-6 production from macrophages induced through administration (Example 9, Table 1). It counts as in vivo, DBA/2 mice. The arrangement: concentration or dose not given beside the values. Particulars: produced spontaneously in the absence of a stimulator. The protocol:
A stimulator was added to 1×10^6 MΦ, and the incubation was conducted at 37° C. for 2 days in a CO2 incubator. After centrifugation, the culture supernatant was collected.
The amount of IL-6 was determined using IL-6 dependent mouse hybridoma MH60 cells (J. Eur. Immunol., vol. 18, p. 951, 1988). One hundred microliters of the culture supernatant were added to 100 μl of the MH60 cell suspension adjusted to 1×10^5 cells/ml in a 10% FCS-containing RPMI medium, and the mixed solution was incubated at 37° C. for 2 days in a CO2 incubator. Subsequently, 10 μl of MTT (supplied by Sigma Co.) solution adjusted to a concentration of 5 mg/ml in the same medium were added thereto, and the reaction was conducted at 37° C. for 5 hours. After the completion of the reaction, the centrifugation was conducted. The supernatant (160 μl) was removed, and 100 μl of a mixture of hydrochloric acid and propanol were added to the residue. The suspension was conducted using a pipetman to dissolve the cells. Immediately after the dissolution, an absorbance of 570 nm was measured with an immunometer (supplied by Bio-Rad).
This was clarified by harvesting peritoneal exudate cells 20 hours after the completion of the administration, adhering the cells to the plastic surface, then reacting the cells with 10 μM of monochlorobimane at 37° C. for 30 minutes, and analyzing the reaction product with ACAS. The increase in the amounts of oxidative macrophages can easily be determined visually from the fact that almost no reaction product with monochlorobimane is observed, namely, a gray or blue image is provided, and the increase in the amounts of reductive macrophages from the fact that a red or yellow image is provided respectively. […] Meanwhile, the same examination was conducted by harvesting peritoneal exudate cells after 20 hours of the administration of 2 mg of N-acetylcystine (NAC).
Thus, the peritoneal exudate adherent cells were incubated in the following manner, and the amounts of NO and IL-12 produced in the culture supernatant were measured. With respect to the amount of IL-6, the amount of IL-6 produced spontaneously in the absence of a stimulator was measured.
Cells: The peritoneal exudate adherent cells obtained by the stimulation, namely, the macrophages were added to a 96-well microplate in an amount of 1×10^5 cells/200 μl each.
Medium: Phenol red-free RPMI 1640: 200 μl/well

Assay [3] deals with spontaneous inflammatory bowel disease. In words: Spontaneous inflammatory bowel disease in γc knock out mice (Example 13). It counts as in vivo. Particulars: −/Y mice, 20 μg/h twice a week, 5 times in total; for survival rate, Day 31 / survival rate, Day 45: non-administration 33%; for occurrence rate of intestinal inflammation, Day 14 / occurrence rate of intestinal inflammation, Day 31: non-administration 83%; for occurrence rate of intestinal inflammation, Day 45: non-administration 100%. An excerpt: In wild-type normal littermates of γc knock out mice (genetic phenotypes +/+, +/Y), no inflammatory bowel disease is observed at all under ordinary SPF breeding conditions. However, in γc knock out mice (genetic phenotypes, −/−, −/+ and −/Y), inflammatory bowel diseases occur very of ten. With respect to homo-knock out mice with −/− and −/Y phenotypes, approximately 70% thereof are spontaneously accompanied with inflammatory bowel diseases within 4 months. Also with respect to mice with +/− phenotype, approximately 60% thereof are spontaneously accompanied therewith within 6 months. That is, intestinal shortening, bloody stool, diarrhea, loose passage, anal prolapse and colonal hypertrophy are observed.
On the basis of the findings mentioned above, the effect of inhibiting spontaneous progression of inflammatory bowel disease in γc knock out mice was examined with respect to human Crohn disease and ulcerative colitis models. Saline, (NAC-OMe)2 or (NAC)2 (20 μg/h) was administered twice a week, 5 times in total, to each of 6 γc knock out male mice with […] and 6 γc knock out male mice with −/Y genotype which were inclined to have oxidative MΦ. It was examined whether or not the intestinal inflammation spontaneously progressed in −/Y was inhibited. In case of (NAC-OMe)2, on Day 14 of the administration, the occurrence rate of the non-administration −/Y group and the administration −/Y group was 83% to 25%; on Day 31, the occurrence rate was 83% to 25%, and the survival rate was 33% to 100%; and on Day 45, the occurrence rate was 100% to 25%, and the survival rate was 33% to 75%. In case of (NAC)2, it was 30, 40, 100, 40, 75% respectively.

This note sets out measurements from US7378387B2, “Method of suppressing immune response by reducing intracellular content of glutathione in macrophages and monocytes” (Ajinomoto Co., Inc., priority 1997, dated 2008).

In the case of `CC(=O)N[C@@H](CS)C(=O)O` [NAC, N-acetylcysteine, reference compound], the “Frequency (%) of onset of diabetes mellitus” value (from here on “Frequency (%)”) in assay [1] (oral, judged on week 22, doses as in Example 24, saline 67) is recorded as 60%. Further, the “content of reductive glutathione in MΦ in comparison with control mice” value in assay [2] is “markedly increased”. The “IL-6, amount produced relative to that of control group” value (from here on “IL-6, amount produced relative to that”) with IL-6 stood at 42%.

As to `CC(=O)N[C@@H](CSSC[C@H](NC(C)=O)C(=O)O)C(=O)O` [(NAC)2, N,N′-diacetylcystine], in assay [3], the “survival rate, Day 31” value stood at 100%; the “survival rate, Day 45” value is reported as 75%; the “occurrence rate of intestinal inflammation, Day 14” value amounted to 30%; the “occurrence rate of intestinal inflammation, Day 31” value was found to be 40%. Further, the “occurrence rate of intestinal inflammation, Day 45” value in assay [3] is 40%. For the same compound, in assay [1] (route not given, judged on week 22, saline 67), the “Frequency (%)” value stood at 60%. The “IL-6, amount produced relative to that” value in the assay on IL-6 is reported as 340%.

As for `COC(=O)[C@H](CSSC[C@H](NC(C)=O)C(=O)OC)NC(C)=O` [(NAC-OMe)2, N,N′-diacetylcystine dimethyl ester], in assay [3], the “survival rate, Day 31” value came out at 100%; the “survival rate, Day 45” value is recorded as 75%; the “occurrence rate of intestinal inflammation, Day 14” value is reported as 25%; the “occurrence rate of intestinal inflammation, Day 31” value is 25%. Besides, the “occurrence rate of intestinal inflammation, Day 45” value in assay [3] stood at 25%. Also, the “Frequency (%)” value in assay [1] (intraperitoneal, judged on week 22, doses as in Example 24, saline 67) was found to be 11%. For the same compound, the “IL-6, amount produced relative to that” value in the assay on IL-6 stood at 320%.

With `CCOC(=O)CNC(=O)[C@H](CS)NC(=O)CC[C@H](N)C(=O)O` [GSH-OEt, glutathione monoethyl ester], the “content of reductive glutathione in MΦ in comparison with control mice” value in assay [2] is “markedly increased”.
